pIC50: −log10 of the molar value.
Key:
[1] = target: T1, Bovine lysyl oxidase (LOX) (Bos taurus, UniProt P33072); experiment: LOX inhibition assay (fluorometric, cadaverine/Amplex Red/HRP); type: biochemical; details: IC50 class; bovine tendon LOX, cadaverine substrate; read-out: Activity Range LOX
T1 construct: from tissue; host or cells: adult bovine tendon
T1 sequence (P33072 170-418): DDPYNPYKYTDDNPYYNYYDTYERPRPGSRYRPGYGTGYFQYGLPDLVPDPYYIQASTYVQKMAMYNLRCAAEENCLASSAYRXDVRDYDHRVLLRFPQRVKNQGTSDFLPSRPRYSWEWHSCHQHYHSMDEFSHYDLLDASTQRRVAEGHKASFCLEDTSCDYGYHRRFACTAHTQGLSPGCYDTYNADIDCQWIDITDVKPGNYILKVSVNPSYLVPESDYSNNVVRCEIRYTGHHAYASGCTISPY
Method: (§1) The ability of compounds to inhibit prototypic LOX was determined using a fluorometric assay. This assay measures the activity of lysyl oxidases by coupling the reaction with horseradish peroxidase-catalyzed […]. The activity assay protocol uses cadaverine as substrate that releases hydrogen peroxide upon transformation by prototypic LOX enzyme present in the sample. Hydrogen peroxide is in turn detected using a red fluorescence substrate for HRP-coupled reactions (Amplex Red Enzyme Assays, Thermo Scientific Fisher). This leads to increase in fluorescence that can be easily detected at Ex/Em=540/590 nm in a fluorescence microplate reader.
Enzyme: Bovine lysyl oxidase (LOX) was extracted by adapting the methodology from [Kagan et al. 1979 and Borel et al. 2001.] from bovine tendon: Frozen adult bovine tendon was placed in room temperature water to defrost, and then membranes were removed and the remaining tissue cut into 1 cm pieces. The material was first passed through a course mesh meat grinder, and this mince was passed through a fine mesh grinder. The mince was homogenized in 10 v/w of buffer (16 mM sodium phosphate buffer pH 7.8, 400 mM NaCl) using a Waring blender. The homogenate was centrifuged at 15,000×g for 15 min at 4° C. After centrifugation, the supernatant was discarded and the pellets resuspended in 10 volumes of the same buffer. The mixture was blended again and centrifuged with the same settings. This time the pellets were blended in 3 volumes of extraction buffer (16 mM sodium phosphate buffer pH 7.8) and left to incubate at 4° C. for 2 h. After this time, the slurry was centrifuged with the same settings as described above. The supernatant was used in an ultrafiltration step to remove large proteins by size exclusion through a 30 kDalton filter (EMD Millipore). The filtrate was mixed with DEAE Sephadex (GE Healthcare), or passed over a MonoQ FPLC column. After two washes, one in 16 mM sodium phosphate buffer pH 7.8, 380 mM NaCl, and another in 16 mM sodium phosphate buffer pH 7.8, the proteins were eluted with 16 mM sodium phosphate pH 7.8, 10 μM CuSO4, and 4 M urea. Fractions containing Lox activity were collected and stored frozen at −70° C.
Reaction: Final concentration in the LOX assay was as following and performed in a total volume of […]:
Experimental procedure: 7 μl of freshly prepared reaction buffer were delivered to reaction wells. Compounds were resuspended in 100% DMSO at 10 mM and delivered into buffer using acoustic technology (Echo550; nanoliter range). A 2.85× solution of LOX protein in reaction buffer was prepared (“LOX solution”) and 7 μl of LOX solution was added into the reaction wells. Buffer only was added to column 1 for no protein control. Reactions were incubated for 30 minutes at 37° C. A 3.33× mixture of cadaverine, Amplex Red, and HRP (“Substrate/Detection Mix) was prepared and subsequently 6 μL of the mixture was added to each reaction well. Progress of reactions was monitored for 120 minutes at 37° C. using Clariostar plate reader (ex530-12, ems 600-40). For all activity assays, pan-LOX inhibitor CCT365623 (Tang et al, 2017) and LOXL2/LOXL3 inhibitor PAT-1251 (PharmaKea) were included as standards.
Data analysis: Slope of the linear portion of the progress curve was calculated using Clariostar software. Typical analysis interval was between 20-50 min, but varied between experiments. The background subtracted signals (No protein wells were considered as background) were converted to % activity relative to DMSO controls. Data was analyzed using GraphPad Prism 4 with “sigmoidal dose-response (variable slope)”; 4 parameters with Hill Slope. Constraints: Bottom=Constant equal to 0. Top=Must be less than 120.

[2] = target: T2, Recombinant human LOXL2 (lysyl oxidase like 2) (Homo sapiens, UniProt Q9Y4K0); experiment: LOXL2 inhibition assay (fluorometric, cadaverine/Amplex Red/HRP); type: biochemical; details: IC50 class; recombinant human LOXL2, cadaverine substrate; read-out: Activity Range LOXL2
T2 construct: purchased R&D systems
T2 sequence (Q9Y4K0 26-774): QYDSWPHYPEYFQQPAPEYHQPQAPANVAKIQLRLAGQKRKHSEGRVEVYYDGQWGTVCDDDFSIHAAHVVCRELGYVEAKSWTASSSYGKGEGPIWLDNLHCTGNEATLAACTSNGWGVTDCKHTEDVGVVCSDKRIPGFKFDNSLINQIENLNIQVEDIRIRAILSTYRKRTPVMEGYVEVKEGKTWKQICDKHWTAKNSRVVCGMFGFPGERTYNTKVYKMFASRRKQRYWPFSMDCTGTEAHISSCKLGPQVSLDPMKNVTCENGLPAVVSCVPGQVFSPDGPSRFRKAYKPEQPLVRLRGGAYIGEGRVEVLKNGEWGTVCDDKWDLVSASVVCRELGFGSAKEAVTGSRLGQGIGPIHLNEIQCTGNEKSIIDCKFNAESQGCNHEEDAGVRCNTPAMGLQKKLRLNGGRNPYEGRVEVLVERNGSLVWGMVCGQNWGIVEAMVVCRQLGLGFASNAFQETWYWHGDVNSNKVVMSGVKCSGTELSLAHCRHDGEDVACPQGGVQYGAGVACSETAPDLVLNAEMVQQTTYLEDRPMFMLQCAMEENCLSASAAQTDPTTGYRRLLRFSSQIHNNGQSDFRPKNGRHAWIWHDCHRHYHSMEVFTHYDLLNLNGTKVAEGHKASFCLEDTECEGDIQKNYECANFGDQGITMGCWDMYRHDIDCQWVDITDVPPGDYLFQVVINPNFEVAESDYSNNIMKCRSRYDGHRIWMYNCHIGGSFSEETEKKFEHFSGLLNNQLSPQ
Method: as §1, with “inhibit one or more of the lysyl oxidases LOXL2 and/or LOXL3” for “inhibit prototypic LOX”, “by the specific” for “by prototypic”, “LOX family” for “LOX”
Enzymes: Recombinant human LOXL2 (lysyl oxidase like 2) and recombinant human LOXL3 (lysyl oxidase like 3) were purchased from R&D systems and assays were performed in 1.2 M urea, 50 mM sodium borate buffer pH 8.0, and 10 mM CaCl.
Reaction: Final concentration in the LOXL2 and LOXL3 assays were as following and performed in a total volume of […]:
Experimental procedure: 5 μl of freshly prepared reaction buffer were delivered to reaction wells. Compounds were resuspended in 100% DMSO at 10 mM and delivered into buffer using acoustic technology (Echo550; nanoliter range). A 3× solution of LOXL2 or LOXL3 in reaction buffer was prepared (“enzyme solution”) and 5 μL of enzyme solution was added into the reaction wells. Buffer only was added to column 1 for no protein control. Reactions were incubated for 30 minutes at 37° C. A 3×mixture of cadaverine, Amplex Red, and HRP (“Substrate/Detection Mix) was prepared and subsequently 5 μL of the mixture added to each reaction well. Progress of reactions was monitored for 60 minutes at 37° C. using Clariostar plate reader (ex 530-12, ems 600-40). For all activity assays, pan-LOX inhibitor CCT365623 (Tang et al, 2017) and LOXL2/LOXL3 inhibitor PAT-1251 (PharmaKea) were included as standards.
Data analysis: Slope of the linear portion of the progress curve was calculated using Clariostar software. Typical analysis interval was between 8-30 min, but varied between experiments. The background subtracted signals (No protein wells are considered as background) were converted to % activity relative to DMSO controls. Data was analyzed using GraphPad Prism 4 with “sigmoidal dose-response (variable slope)”; 4 parameters with Hill Slope. Constraints: Bottom=Constant equal to 0. Top=Must be less than 120.

CN(C)C(=O)[C@H]1C[C@@H](c2ccccc2)CN(S(=O)(=O)c2ccc(CN)s2)C1 (racemic) [Example 9, cis-1-((5-(Aminomethyl)thiophen-2-yl)sulfonyl)-N,N-dimethyl-5-phenylpiperidine-3-carboxamide 2,2,2-trifluoroacetate]
pIC50 [1]: 6.00 to 6.30
pIC50 [2]: ≥ 6.30

NCc1ccc(S(=O)(=O)N2C[C@@H](C(=O)N3CCCCC3)C[C@@H](c3ccccc3)C2)s1 (racemic) [Example 11, cis-(1-((5-(Aminomethyl)thiophen-2-yl)sulfonyl)-5-phenylpiperidin-3-yl)(piperidin-1-yl)methanone 2,2,2-trifluoroacetate]
pIC50 [1]: ≥ 6.30
pIC50 [2]: ≥ 6.30

NCc1ccc(S(=O)(=O)N2C[C@@H](C(=O)N3CCNCC3)C[C@@H](c3ccccc3)C2)s1 (racemic) [Example 15, cis-(1-((5-(Aminomethyl)thiophen-2-yl)sulfonyl)-5-phenylpiperidin-3-yl)(piperazin-1-yl)methanone 2,2,2-trifluoroacetate]
pIC50 [1]: 6.00 to 6.30
pIC50 [2]: ≥ 6.30

CN1CCN(C(=O)[C@H]2C[C@@H](c3ccccc3)CN(S(=O)(=O)c3ccc(CN)s3)C2)CC1 (racemic) [Example 17, cis-(1-((5-(Aminomethyl)thiophen-2-yl)sulfonyl)-5-phenylpiperidin-3-yl)(4-methylpiperazin-1-yl)methanone 2,2,2-trifluoroacetate]
pIC50 [1]: 6.00 to 6.30
pIC50 [2]: ≥ 6.30

CS(=O)(=O)[C@@H]1C[C@H](Oc2ccc(CN)cc2)CN(c2ccccc2)C1 (racemic) [Example 20, cis-(4-((-5-(Methylsulfonyl)-1-phenylpiperidin-3-yl)oxy)phenyl)methanamine2,2,2-trifluoroacetate]
pIC50 [1]: 4.52 to 6.00
pIC50 [2]: 4.52 to 6.00

CS(=O)(=O)[C@@H]1C[C@H](Oc2cccc(CN)c2)CN(c2ccccc2)C1 (racemic) [Example 21, cis-(3-((-5-(Methylsulfonyl)-1-phenylpiperidin-3-yl)oxy)phenyl)methanamine 2,2,2-trifluoroacetate]
pIC50 [1]: < 4.52
pIC50 [2]: 6.00 to 6.30

CS(=O)(=O)[C@H]1C[C@@H](S(=O)(=O)c2ccc(CN)cc2)CN(c2ccccc2)C1 (racemic) [Example 22, cis-(4-((5-(Methylsulfonyl)-1-phenylpiperidin-3-yl)sulfonyl)phenyl)methanamine 2,2,2-trifluoroacetate]
pIC50 [1]: 4.52 to 6.00
pIC50 [2]: ≥ 6.30

CS(=O)(=O)N1C[C@H](Oc2ccc(CN)cc2)C[C@H](c2ccccc2)C1 (racemic) [Example 24, cis-(4-((1-(Methylsulfonyl)-5-phenylpiperidin-3-yl)oxy)phenyl)methanamine 2,2,2-trifluoroacetate]
pIC50 [1]: < 4.52
pIC50 [2]: 4.52 to 6.00

CS(=O)(=O)N1C[C@H](Oc2cccc(CN)c2)C[C@H](c2ccccc2)C1 (racemic) [Example 25, cis-(3-((-1-(Methylsulfonyl)-5-phenylpiperidin-3-yl)oxy)phenyl)methanamine 2,2,2-trifluoroacetate]
pIC50 [1]: 4.52 to 6.00
pIC50 [2]: 6.00 to 6.30

CS(=O)(=O)N1C[C@@H](c2ccccc2)C[C@@H](S(=O)(=O)c2ccc(CN)cc2)C1 (racemic) [Example 26, cis-(4-((1-(Methylsulfonyl)-5-phenylpiperidin-3-yl)sulfonyl)phenyl)methanamine 2,2,2-trifluoroacetate]
pIC50 [1]: 4.52 to 6.00
pIC50 [2]: ≥ 6.30

CS(=O)(=O)N1C[C@@H](c2ccccc2)C[C@@H](S(=O)(=O)c2cccc(CN)c2)C1 (racemic) [Example 27, cis-(3-((1-(Methylsulfonyl)-5-phenylpiperidin-3-yl)sulfonyl)phenyl)methanamine 2,2,2-trifluoroacetate]
pIC50 [1]: 4.52 to 6.00
pIC50 [2]: ≥ 6.30

CS(=O)(=O)N1C[C@H](Oc2cc(CN)ccc2F)C[C@H](c2ccccc2)C1 (racemic) [Example 69, cis-(4-Fluoro-3-((-1-(methylsulfonyl)-5-phenylpiperidin-3-yl)oxy)phenyl)methanamine 2,2,2-trifluoroacetate]
pIC50 [1]: < 4.52
pIC50 [2]: ≥ 6.30

NCc1cccc(S(=O)(=O)N2C[C@@H](C(=O)N3CCOCC3)C[C@@H](c3ccccc3)C2)n1 (racemic) [Example 114, cis-(1-((6-(Aminomethyl)pyrid-2-yl)sulfonyl)-5-phenylpiperidin-3-yl)(morpholino)methanone]
pIC50 [2]: < 4.52
